Test results as given in patent US11707065B2, “Method for biofilm dispersal” (MC (US) 3 LLC, priority 2017, dated 2023).

Columns and labels:
[1] = tested on: Desulfovibrio vulgaris (ATCC 29579) biofilm; experiment: Biofilm dispersal assay, crystal violet staining of remaining biofilm in 96-well plates; type: cell-based; conditions: D. vulgaris
Description: (§1) Cultures of Desulfovibrio vulgaris (ATCC 29579) and Desulfovibrio desulfuricans (DSM 12129) were prepared in Modified Baar's medium at 30 C under anaerobic conditions. The bacterial cultures were then used to prepare bacterial suspensions in fresh Modified Baar's medium to a cell density of 0.1 (Table 2 to 6) or 0.05 (Table 1) at 600 nm. The appropriate bacterial suspension was used to fill 96-well plates and the plates were incubated in an anaerobic glove box for 24 h (Table 2 to 6) or 48 h (Table 1) at 30° C. to develop biofilms. Stocks of D-mannose (2.85 M, Alfa Aesar, Cat #A10842), 2DG (1.22 M, Alfa Aesar, Cat #AAAL07338-06), αMM (1.22 M, Acros Organics, Cat #AC229251000), and αMG (1.22 M, Alfa Aesar, Cat #AAA12484-22) were prepared in sterile distilled water and filtered through a 0.22 μm filter. For biofilm dispersal assay, the planktonic cells were removed, and the plates were washed with 150 μL of 1× of phosphate buffered saline (pH 7.4); D-mannose, 2DG, αMM, and αMG were added, the volume was adjusted with 1×PBS, pH 7.4 to 150 μL, and the plates were incubated in the anaerobic glove box for 2 h (Table 1, 2, 4, 5, 6) or 14 h (Table 3) for biofilm dispersal studies. After the treatment, supernatants were discarded; the wells were washed three times with deionized water (DW) by dipping the plates into a 1 L solution of DW, and the plates were dried via a piece of paper towel by patting. 300 μL of 0.1% crystal violet was added to each well, the plates were incubated for 20 minutes at room temperature (25° C.), and the staining solution was discarded. The plates were washed three times with DW by dipping the plates into a 1 L solution of DW, then 300 μL of 95% ethanol was added to each well, and the plates were soaked for 5 min to dissolve the crystal violet. Total biofilm was measured spectrophotometrically at 540 nm using a Sunrise microplate reader (Tecan, Austria Gesellschaft, Salzburg, Austria).

[2] = tested on: Desulfovibrio desulfuricans (DSM 12129) biofilm; experiment: as above; type: cell-based; conditions: D. desulfuricans, 2 h treatment, 24 h biofilm, negative control 0.88
Description: as §1

[3] = 30 mM, 2 h treatment, 24 h biofilm (cell density 0.1), negative control per table
[4] = 100 mM, 2 h treatment, 24 h biofilm (cell density 0.1), negative control per table
[5] = 500 mM, 2 h treatment, 24 h biofilm (cell density 0.1), negative control per table

Structure (SMILES) | Remaining biofilm OD540 ([1]; 1 mM, 14 h treatment, 24 h biofilm, negative control 0.26) | Remaining biofilm OD540 ([1]; 5 mM, 14 h treatment, 24 h biofilm, negative control 0.26) | Remaining biofilm OD540 ([1]; 10 mM, 14 h treatment, 24 h biofilm, negative control 0.26) | Remaining biofilm OD540 [1, 3] | Remaining biofilm OD540 [1, 4] | Remaining biofilm OD540 [1, 5] | Remaining biofilm OD540 (average) ([2]; 30 mM) | Remaining biofilm OD540 (average) ([2]; 100 mM) | Remaining biofilm OD540 (average) ([2]; 500 mM)
O=CC[C@@H](O)[C@H](O)[C@H](O)CO [2DG, 2-deoxy-D-glucose] | 0.24 | 0.21 | 0.16 | 0.24 | 0.17 | 0.18 | 0.59 | 0.49 | 0.41
CO[C@H]1O[C@H](CO)[C@@H](O)[C@H](O)[C@H]1O [αMG, methyl α-D-glucopyranoside] | – | – | – | 0.39 | 0.33 | 0.45 | 0.75 | 0.62 | 0.55
CO[C@H]1O[C@H](CO)[C@@H](O)[C@H](O)[C@@H]1O [αMM, methyl α-D-mannopyranoside] | – | – | – | 0.42 | 0.40 | 0.23 | 0.60 | 0.53 | 0.50
